Reference: US20100078393A1, “BIOCIDAL COMPOSITIONS AND METHODS OF USE” (priority 2008, published 2010)

Columns and labels:
[1] = tested on: oil field isolated anaerobic SRB consortium; assay: Biocidal efficacy against anaerobic SRB at 40° C., serial dilution method; type: cell-based, sulfate-reducing bacteria (SRB); settings: for Concentration required for complete bacterial kill in 1 hour, used alone / Concentration required for 3 log bacterial kill in 2 hours, used alone: ppm active; for Concentration required for complete bacterial kill in 1 hour, used alone: 40° C.; for Concentration required for 3 log bacterial kill in 2 hours, used in combination: concentration of the labelled component
Procedure: (§1) The synergy indexes reported in the following examples are calculated using the following equation:
(§2) Synergy Index=Ca/CA+Cb/CB
(§3) A synergy index (SI) of 1 indicates additivity, a synergy index of less than 1 indicates synergy, and a synergy index greater than 1 indicates antagonism.
(§4) Various methods known to those skilled in the art can be used for evaluating biocidal efficacy. In some of the examples below, a serial dilution technique is used, which determines viable bacteria remaining after a treatment regimen. The method is based or adapted (e.g., for high temperature testing or for the presence of sulfide) from the methodology described in inventor's pending international application PCT/US08/075755, filed Sep. 10, 2008, which is incorporated herein by reference.
Inside an anaerobic chamber (Bactron III), a deaerated sterile salt solution (3.1183 g of NaCl, 1.3082 mg of NaHCO3, 47.70 mg of KCl, 72.00 mg of CaCl2, 54.49 mg of MgSO4, 172.28 mg of Na2SO4, 43.92 mg of Na2CO3 in 1 L water) is contaminated with an oil field isolated anaerobic SRB consortium at final bacterial concentrations of about 10^7 CFU/mL. […] […] Bacterial log reduction is then calculated.

[2] = tested on: Bacillus subtillus ATCC 8473; assay: Biocidal efficacy against aerobic bacteria, log reduction after 1 hour at 37° C.; type: cell-based; settings: for Concentration required to achieve 3 log bacterial reduction in 1 hour, used in combination: active weight ratio 1:6; for Concentration required to achieve 3 log bacterial reduction in 1 hour, used alone: ppm active
Procedure: as §1, §2, §3, §4
(§5) A sterile NaCl solution (0.85%) is contaminated with bacterial inoculums at final bacterial concentration of approximately 10^6 CFU/ml. Then, biocide solution (single or in combination) is added into the bacterial suspension at various concentrations and immediately mixed well. After the mixtures are incubated at 37° C. for 1 hour, the viable bacteria left in the solution are determined. Bacterial log reduction is then calculated.

[3] = tested on: Escherichia coli ATCC 11229; assay: as above; type: cell-based; settings: for Concentration required to achieve 3 log bacterial reduction in 1 hour, used in combination: active weight ratio 1:6; for Concentration required to achieve 3 log bacterial reduction in 1 hour, used alone: ppm active
Procedure: as §1, §2, §3, §4, §5

[4] = tested on: Pseudomonas putida ATCC 49128; assay: as above; type: cell-based; settings: for Concentration required to achieve 3 log bacterial reduction in 1 hour, used in combination: active weight ratio 1:6; for Concentration required to achieve 3 log bacterial reduction in 1 hour, used alone: ppm active
Procedure: as §1, §2, §3, §4, §5

[5] = tested on: Klebsiella pneumoniae ATCC 8308; assay: as above; type: cell-based; settings: for Concentration required to achieve 3 log bacterial reduction in 1 hour, used in combination: active weight ratio 1:6; for Concentration required to achieve 3 log bacterial reduction in 1 hour, used alone: ppm active
Procedure: as §1, §2, §3, §4, §5

[6] = tested on: Enterobacter aerogenes ATCC 13048; assay: as above; type: cell-based; settings: for Concentration required to achieve 3 log bacterial reduction in 1 hour, used in combination: active weight ratio 1:6; for Concentration required to achieve 3 log bacterial reduction in 1 hour, used alone: ppm active
Procedure: as §1, §2, §3, §4, §5

[7] = tested on: Staphylococcus aureus ATCC 6538; assay: as above; type: cell-based; settings: for Concentration required to achieve 3 log bacterial reduction in 1 hour, used in combination: active weight ratio 1:6; for Concentration required to achieve 3 log bacterial reduction in 1 hour, used alone: ppm active
Procedure: as §1, §2, §3, §4, §5

[8] = tested on: Pseudomonas aeruginosa ATCC 10145; assay: as above; type: cell-based; settings: for Concentration required to achieve 3 log bacterial reduction in 1 hour, used in combination: active weight ratio 1:6; for Concentration required to achieve 3 log bacterial reduction in 1 hour, used alone: ppm active
Procedure: as §1, §2, §3, §4, §5

[9] = concentration of the labelled component in glutaraldehyde + 4,4-dimethyl-oxazolidine combination
[10] = concentration of the labelled component in glutaraldehyde + 7-ethyl-bicyclooxazolidine combination

SMILES | Concentration required for complete bacterial kill in 1 hour, used alone [1] [ppm] | Concentration required to achieve 3 log bacterial reduction in 1 hour, used in combination [2, 9] [ppm] | Concentration required to achieve 3 log bacterial reduction in 1 hour, used alone [2] [ppm] | Concentration required to achieve 3 log bacterial reduction in 1 hour, used in combination [3, 9] [ppm] | Concentration required to achieve 3 log bacterial reduction in 1 hour, used alone [3] [ppm] | Concentration required to achieve 3 log bacterial reduction in 1 hour, used in combination [4, 9] [ppm] | Concentration required to achieve 3 log bacterial reduction in 1 hour, used alone [4] [ppm] | Concentration required to achieve 3 log bacterial reduction in 1 hour, used in combination [5, 9] [ppm] | Concentration required to achieve 3 log bacterial reduction in 1 hour, used alone [5] [ppm] | Concentration required to achieve 3 log bacterial reduction in 1 hour, used in combination [6, 9] [ppm] | Concentration required to achieve 3 log bacterial reduction in 1 hour, used alone [6] [ppm] | Concentration required to achieve 3 log bacterial reduction in 1 hour, used in combination [7, 9] [ppm] | Concentration required to achieve 3 log bacterial reduction in 1 hour, used alone [7] [ppm] | Concentration required to achieve 3 log bacterial reduction in 1 hour, used in combination [8, 9] [ppm] | Concentration required to achieve 3 log bacterial reduction in 1 hour, used alone [8] [ppm] | Concentration required for 3 log bacterial kill in 2 hours, used alone [1] [ppm] | Concentration required to achieve 3 log bacterial reduction in 1 hour, used in combination [2, 10] [ppm] | Concentration required to achieve 3 log bacterial reduction in 1 hour, used in combination [3, 10] [ppm] | Concentration required to achieve 3 log bacterial reduction in 1 hour, used in combination [4, 10] [ppm] | Concentration required to achieve 3 log bacterial reduction in 1 hour, used in combination [5, 10] [ppm] | also measured
CC1(C)COCN1 [4,4-dimethyl-oxazolidine] | >1600.0 | 111.3 | 296.6 | 111.3 | 197.8 | 111.3 | 296.6 | 74.2 | 197.8 | 111.3 | 296.6 | 111.3 | 296.6 | 111.3 | 296.6 |  |  |  |  |  | 
CCC12COCN1COC2 [7-ethyl-bicyclooxazolidine, 5-ethyl-1-aza-3,7-dioxabicyclo[3.3.0]octane] |  |  | 296.6 |  | 296.6 |  | 296.6 |  | 197.8 |  | 296.6 |  | 296.6 |  | 296.6 | >2025 | 74.2 | 74.2 | 111.3 | 74.2 | Concentration required for 3 log bacterial kill in 2 hours, used in combination ([1]; glutaraldehyde:7-ethyl-bicyclooxazolidine weight ratio 1:1): 5.9 ppm; Concentration required for 3 log bacterial kill in 2 hours, used in combination ([1]; glutaraldehyde:7-ethyl-bicyclooxazolidine weight ratio 1:2): 11.9 ppm; Concentration required for 3 log bacterial kill in 2 hours, used in combination ([1]; glutaraldehyde:7-ethyl-bicyclooxazolidine weight ratio 1:5): 29.6 ppm; Concentration required for 3 log bacterial kill in 2 hours, used in combination ([1]; glutaraldehyde:7-ethyl-bicyclooxazolidine weight ratio 1:10): 39.5 ppm; Concentration required for 3 log bacterial kill in 2 hours, used in combination ([1]; glutaraldehyde:7-ethyl-bicyclooxazolidine weight ratio 1:20): 52.7 ppm; Concentration required for 3 log bacterial kill in 2 hours, used in combination ([1]; glutaraldehyde:7-ethyl-bicyclooxazolidine weight ratio 2:1): 4.4 ppm; Concentration required for 3 log bacterial kill in 2 hours, used in combination ([1]; glutaraldehyde:7-ethyl-bicyclooxazolidine weight ratio 5:1): 1.2 ppm; Concentration required for 3 log bacterial kill in 2 hours, used in combination ([1]; glutaraldehyde:7-ethyl-bicyclooxazolidine weight ratio 10:1): 0.6 ppm; Concentration required for 3 log bacterial kill in 2 hours, used in combination ([1]; glutaraldehyde:7-ethyl-bicyclooxazolidine weight ratio 20:1): 0.3 ppm; Concentration required to achieve 3 log bacterial reduction in 1 hour, used in combination [6, 10]: 111.3 ppm; Concentration required to achieve 3 log bacterial reduction in 1 hour, used in combination [7, 10]: 111.3 ppm; Concentration required to achieve 3 log bacterial reduction in 1 hour, used in combination [8, 10]: 111.3 ppm
O=CCCCC=O [Glutaraldehyde] | 26.3 | 18.6 | 44.5 | 18.6 | 44.5 | 18.6 | 44.5 | 12.4 | 44.5 | 18.6 | 44.5 | 18.6 | 44.5 | 18.6 | 44.5 | 8.9 | 12.4 | 12.4 | 18.6 | 12.4 | Concentration required to achieve 3 log bacterial reduction in 1 hour, used in combination [6, 10]: 18.6 ppm; Concentration required to achieve 3 log bacterial reduction in 1 hour, used in combination [7, 10]: 18.6 ppm; Concentration required to achieve 3 log bacterial reduction in 1 hour, used in combination [8, 10]: 18.6 ppm
